From a melting point compilation (Tetko et al.; mined from patent text by program, amines drawn as free bases though some values may be those of a salt)

| SMILES | melting point |
| --- | --- |
| Cc1cccc2cc3c(=O)n(CCCN4CCCC4=O)cc(C(=O)NCCN(C)C)c3nc12 | 170 to 171 °C |
| COc1cc2cnnc(N3CCC(CC(C)O)CC3)c2cc1OC (configuration not stated) | 154 to 156 °C |
| O=C(Cc1ccccc1)N1CCCSC1=C[N+](=O)[O-] | 121 to 122 °C |
| O=C1COC(=O)C1=Cc1ccc(C(=O)O)s1 | 255 to 268 °C |
| COC(=O)c1c(N)cc(OC)c(OC)c1OC | 94 to 96 °C |
| CC1Nc2ccc(-c3csc(C#N)c3)cc2C(C)(C)O1 (configuration not stated) | 175 to 176 °C |
| c1cnc2[nH]c(CCCN3CCOCC3)nc2c1 | 101 to 103 °C |
| COc1ccc(-c2cc(=O)n(C)c(=O)[nH]2)cc1OC | 262 to 263 °C |
| O=CNc1ccc([N+](=O)[O-])cc1 | 195 to 199 °C |
| COc1ccc(C(=O)c2c(F)cccc2F)c(Cl)c1Cl | 94 to 96 °C |
| CC1(NC(=O)C(Br)CBr)COCOC1 (configuration not stated) | 115 to 119 °C |
| O=C(O)c1ccc(F)c(F)c1Nc1ccc(I)cc1F | 199 to 201 °C |
| COc1cc(O)c([N+](=O)[O-])cc1C(F)(F)F | 77 to 78 °C |
| CN(C)S(=O)(=O)c1cccc2c1Sc1ccc(O)cc1N2CCCN1CCC(CCO)CC1 | 163 to 165 °C |
| Cc1cc(C2=CCCCC2)c(OP2OCC(C)(C)CO2)c(C(C)(C)C)c1 | 97 to 102 °C |
| N#CCc1cccc(C(=O)c2ccc(Cl)cc2)c1N | 181 to 182 °C |
| O=C(O)C=CC1=CCCC([N+](=O)[O-])C1 (configuration not stated) | 158 to 160 °C |
| CCC1CC(=O)C(C(=O)NS(=O)(=O)c2ccc(C)cc2)C(=O)C1 (configuration not stated) | 86 to 87 °C |
| CC1=C(C(=O)O)OCCO1 | 103 to 105 °C |
| COc1c([N+](=O)[O-])ccc(N)c1Cl | 118 to 123 °C |
| CCCCCCCCCCCCn1nnc(CCC(=O)Nc2c(OC)cc(OC)cc2OC)n1 | 86 to 88 °C |
| Cc1ccc(Br)cc1-c1c(O)c(C)nn(C)c1=O | 217 to 218 °C |

| SMILES | melting point |
| --- | --- |
| CCC(CC)Nc1cc(C)nc(Oc2c(C)cccc2C)c1N | 98 to 100 °C |
| Cc1c(-c2ccncc2)sc(-c2ccncc2)c1C(F)F | 132 to 133 °C |
| CC(=O)NC[C@H]1CN(c2ccc(N3CCC4(CC3)NCCO4)c(F)c2)C(=O)O1 | 138 to 140 °C |
| ON=Cc1cc(Br)ccc1Cl | 126 to 128 °C |
| CCOC(=O)N1CCC(=NO)c2cc(F)ccc21 | 122 to 124 °C |
| CNC(=O)c1ccc(N2CCN(Cc3cc(C)c4c(c3)NC(=O)C(C)O4)CC2)c(Cl)c1 (configuration not stated) | 232 °C |
| CCCCCn1c(C)c(C(=O)c2ccc(Cl)c3ccccc23)c2cccc(OC)c21 | 112 °C |
| Clc1cc2nc(Br)c(Br)nc2cc1Cl | 169 to 170 °C |
| Cn1cc(CO)c(=O)c2ccc(Cl)cc21 | 204 to 206 °C |
| COC(=O)c1c(C(F)F)nc(C(F)(F)F)c(C(=O)OC)c1O | 83 to 84.5 °C |
| COc1ccc(N2C(=O)C3=C(SCCS3)C2CC(=O)N2CCCCC2)cc1 (configuration not stated) | 163 to 164 °C |
| CCCCCCNC(=N)NC#N | 103 to 105 °C |
| CCOC(=O)c1c(C(=O)C(=O)OC)c2cc(Cl)ccc2n1C | 119 to 120 °C |
| CCCCCCC1CCC(O)C(=O)O1 (configuration not stated) | 75.5 to 77 °C |
| N#CC(C=N)CC(=O)c1ccccc1F (configuration not stated) | 120 to 122 °C |
| CC1c2cc(O)ccc2-c2ccc(O)cc21 | 192 to 196 °C |
| CCCC(C)(C)NC(=S)Nc1cc(Cl)cc(Cl)c1 | 115 to 117 °C |
| C[C@H]1c2onc(-c3ccc(Cl)cc3)c2CCC[C@H]1C(=O)O (relative stereo) | 149 to 150 °C |
| Fc1ccc2c(C3=CCN(CC4COc5ccc6[nH]c(C(F)(F)F)nc6c5O4)CC3)c[nH]c2c1 (configuration not stated) | 215 to 220 °C |
| CC(C)(C)OC(=O)N1CCC(Oc2ccc(-c3cn[nH]c(=O)c3)cc2)CC1 | 222 to 223 °C |
| Cc1ncsc1C(C)(O)c1ccccc1 (configuration not stated) | 128 to 130 °C |

Second part, the compound after the results:

| melting point | SMILES |
| --- | --- |
| 128 to 132 °C | COc1cc2c(c3c1OC(C)(C)C3)C(c1ccc(-c3ccc(NC(C)=O)cc3)cc1)=NC(C)(C)C2 |
| 213 to 214 °C | COc1ccc(CC(=O)Nc2cc(-c3c(-c4cccc(C)c4)nc4cccnn34)ccn2)cc1 |
| 137 to 140 °C | O=C(NC(Cc1ccccc1)C(=O)O)OCC1c2c(c3ccccc3c3ccccc23)-c2c1c1ccccc1c1ccccc21 (configuration not stated) |
| 143 to 145 °C | O=C1c2ccccc2C(=O)N1CCN1CCC(c2noc3cc(F)ccc23)CC1 |
| 110 to 112 °C | O=C(Nc1ccc2c(c1)OCO2)c1ccccc1 |
| 155 to 156 °C | CCCCNC(=O)[C@@H](C[C@H](O)[C@H](CC1CCCCC1)NC(=O)[C@H](Cc1cscn1)NC(=O)[C@@H](CC(=O)N(C)Cc1ccccc1)Cc1ccccc1)C(C)C |
| 106 to 107 °C | CCCCCCCc1ccc(C=CC(=O)c2ccc(OCC=C(C)C)cc2OCC(=O)O)cc1 |
| > 300 °C | N=C(NCCCn1cc(C2=CC(=O)NC2=O)c2ccccc21)c1ccc(O)cc1 |
| 81 to 82 °C | N[C@@H](Cc1ccc(C(F)(F)F)cc1)[C@H](O)c1cccc(F)c1 (racemic) |
| 122 to 123 °C | Nc1ccccc1Nc1ccc(I)cc1 |
| 115 to 117 °C | CCN(CC)CCOc1ccc(-n2c(-c3ccccc3)cc(=O)c3ccccc32)cc1 |
| > 200 °C | CCOC(=O)Cn1c2c([nH]c(=O)c1=O)CCC1=C2C=C(n2ccc(CN3CCN(C(c4ccccc4)c4ccccc4)CC3)c2)CC1 |
| 166 to 167 °C | COC(=O)[C@H](CC(C)C)NC(=O)CNC(=O)[C@H](Cc1ccc(O)cc1)NC(=O)[C@H](CO)NC(=O)OCc1ccccc1 |
| 113 to 117 °C | CC(C)(C)OC(=O)NCc1ccc(-c2ccc(O)c(Br)c2)cc1 |
| 196 to 197 °C | CN(C)C(=O)C(Cc1ccccc1)NC(=O)Nc1n[nH]c(=S)s1 (configuration not stated) |
| 106 to 109 °C | CCCOC(Cc1ccc(OCCc2nc(-c3ccccc3)oc2C)c2ccsc12)C(=O)O (configuration not stated) |
| 146 to 148 °C | CS(=O)(=O)Cc1cc(C(O)CNCCCCCCNCC(O)c2ccc(OCc3ccccc3)c(CS(C)(=O)=O)c2)ccc1OCc1ccccc1 (configuration not stated) |
| 193 to 195 °C | Cc1c(CN(O)Cc2ccccc2)c(C)c(CN(O)Cc2ccccc2)c(C)c1CN(O)Cc1ccccc1 |
| 164 to 169 °C | O=c1ccc(C(c2ccccc2)c2ccc(Cl)cc2)c[nH]1 (configuration not stated) |
| 155 to 158 °C | O=C1C=C(c2ccc[nH]2)C(=O)c2ccccc21 |
| 215 to 218 °C | CC(=O)OCC1Cn2cc(C(=O)NCc3ccc(Cl)cc3)c(=O)c3cc(CN4CCOCC4)cc(c32)O1 (configuration not stated) |
| 257 °C | COc1ccccc1-n1c(Cn2cnc3c(N)ncnc32)nc2cccc(Cl)c2c1=O |
| 217 to 220 °C | Cc1noc(-c2cccc(NC(=O)Oc3ccc([N+](=O)[O-])cc3)c2)n1 |
| 145 to 146 °C | CC(=O)c1ccc(-c2ccc(N(Cc3ccccc3)Cc3ccccc3)cc2)c(C)c1 |
| 231 to 233 °C | CN(c1cccc2cc(C3=NCC(CC(=O)O)S3)[nH]c12)S(=O)(=O)c1ccccn1 (configuration not stated) |
| 148 to 172 °C | N#Cc1ccc(-c2cn(-c3ccc(I)cc3)c(SCCO)n2)cc1 |
| 204 to 206 °C | COc1cc(OC)c2c(=O)[nH]c(-c3cc(C)c(OCCOCc4ccccc4)c(C)c3)nc2n1 |
| 110 to 112 °C | O=C(c1csc2ccccc12)C1CCN(CCc2ccccc2)CC1 |
| 166 °C | O=C(O)Cc1cccc(NC(=O)NCC(=O)N2[C@@H](c3cccc(O)c3)CC[C@H]2c2ccccc2)c1 (racemic) |
